# Starred links: 1 amine or outer side, 2 acyl side, 3 side chain; linkers in the order of their positions; H or OH if unused. Positions of bridges follow the written chain, without caps; N, C: chain ends. Non-standard residues stand in square brackets, D forms with d. Residues, ends and D or L forms follow the SMILES beside them. *: point of attachment. hPhe(3-Cl-4-CF3) = N[C@@H](CCc1ccc(C(F)(F)F)c(Cl)c1)C(=O)O; hPhe(3-F,4-CF3) = N[C@@H](CCc1ccc(C(F)(F)F)c(F)c1)C(=O)O; NMeAbu(4,4,4-F3) = CN[C@@H](CC(F)(F)F)C(=O)O; NMePhe(4-Me) = CN[C@@H](Cc1ccc(C)cc1)C(=O)O; X33 = Cc1ccc(CC[C@H](N[*:1])C(=O)[*:2])cc1; NMePhe(2-Me) = CN[C@@H](Cc1ccccc1C)C(=O)O; NMedβ3hAla = C[C@H](CC(=O)[*:2])N(C)[*:1]; NMeAla(cPent) = CN[C@@H](CC1CCCC1)C(=O)O; NMePhe(2-F) = CN[C@@H](Cc1ccccc1F)C(=O)O; NMeGly(cPent) = CN[C@H](C(=O)O)C1CCCC1; dαMeGly(allyl) = C=CC[C@@](C)(N)C(=O)O; NMeGly(cBu) = CN[C@H](C(=O)O)C1CCC1; NMeCha = CN[C@@H](CC1CCCCC1)C(=O)O; X2 = C=CC[C@](C)(N[*:1])C(=O)[*:2]; NEtLeu = CCN[C@@H](CC(C)C)C(=O)O; NMeCba = CN[C@@H](CC1CCC1)C(=O)O; NMeChg = CN[C@H](C(=O)O)C1CCCCC1; NMeI = CC[C@H](C)[C@H](NC)C(=O)O; NMeD = CN[C@@H](CC(=O)O)C(=O)O; NMeL = CN[C@@H](CC(C)C)C(=O)O; NMeV = CN[C@H](C(=O)O)C(C)C; d(β3hA) = C[C@@H](N)CC(=O)O; NMeAbu = CC[C@H](NC)C(=O)O; NMeS = CN[C@@H](CO)C(=O)O; Morpholide = C1CN(*)CCO1; NMeA = CN[C@@H](C)C(=O)O; Piperidide = C1CCN(*)CC1; Pyrrolidide = C1CCN(*)C1; Ac5c = NC1(C(=O)O)CCCC1; Aze = O=C(O)[C@@H]1CCN1; X14 = CC1(C)CCN(*)C1; Sar = CNCC(=O)O; Propyl = CCC*
# Columns and labels:
# [1] = target: T1, Kras and SOS1 (biotin-tagged human Kras loaded with GDP, His-tagged human SOS1) (Homo sapiens, UniProt P01116, G12D); assay: Protein-protein interaction inhibition between Kras and SOS1 (KrasGl2D-SOS PPI) using AlphaScreen; type: binding; settings: AlphaScreen; biotin-tagged human Kras loaded with GDP, His-tagged human SOS1; read-out: KRAS G12D-SOS PPI IC50
# T1 construct: made in house; host or cells: E. coli (stated for Kras only)
# Procedure, shortened: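 Kras was produced in E. coli, purified, then loaded with GDP. It was paired via streptavidin acceptor beads with His-SOS1 held on nickel donor beads, and proximity signal at 520-620 nm was read after 680 nm illumination.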
# [2] = tested on: Human pancreatic cancer cell line AsPC-1; assay: Measurement of AsPC-1 cell growth inhibition (AsPC-1 CGI); type: cell-based; settings: 96 h
# Procedure, shortened: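 AsPC-1 cells in 15% FBS RPMI-1640 were exposed to test compound for 96 hours at 37° C, with CellTiter-Glo as endpoint.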
# T1 sequence (P01116 1-188 isoform P01116-2 G12D): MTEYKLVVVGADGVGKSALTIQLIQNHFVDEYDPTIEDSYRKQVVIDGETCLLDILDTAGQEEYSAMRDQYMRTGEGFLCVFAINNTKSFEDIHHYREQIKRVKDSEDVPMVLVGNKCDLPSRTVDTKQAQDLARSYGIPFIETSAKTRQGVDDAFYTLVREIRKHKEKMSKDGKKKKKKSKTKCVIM
Compound,IC50 [1] [nM],IC50 [2] [nM]
"CC[C@H](C)[C@@H]1NC(=O)[C@H](CC(F)(F)F)N(C)C(=O)C[C@@H](C(=O)N2CCCC2)N(C)C(=O)[C@H](C2CCCCC2)N(C)C(=O)C2(CCCC2)NC(=O)[C@@H]2CCCN2C(=O)[C@H](CCc2ccc(C(F)(F)F)c(Cl)c2)NC(=O)CN(C)C(=O)[C@H](CC2CCCC2)N(C)C(=O)CN(C)C(=O)CN(C)C1=O [Compound 326] ([NMeAbu(4,4,4-F3)]I[Sar][Sar][NMeAla(cPent)][Sar][hPhe(3-Cl-4-CF3)]P[Ac5c][NMeChg][NMeD]-Pyrrolidide; lactam N-11)",0.7,50 to 100
C=CC[C@@]1(C)NC(=O)[C@@H]2CCCN2C(=O)[C@H](CCc2ccc(C(F)(F)F)c(Cl)c2)NC(=O)CN(C)C(=O)[C@H](CC2CCCCC2)N(C)C(=O)CN(C)C(=O)CN(C)C(=O)[C@H]([C@@H](C)CC)NC(=O)[C@H](CC(C)C)N(C)C(=O)C[C@@H](C)N(C)C(=O)[C@H](C(C)C)N(C)C1=O [Compound 1038] (cyclo(I[Sar][Sar][NMeCha][Sar][hPhe(3-Cl-4-CF3)]P[dαMeGly(allyl)][NMeV][NMedβ3hAla][NMeL])),18,100 to 500
CC[C@H](C)[C@@H]1NC(=O)[C@H](CC(C)C)N(C)C(=O)C[C@@H](C(=O)N2CCCCC2)N(C)C(=O)[C@H](C(C)C)N(C)C(=O)C2(CCCC2)NC(=O)[C@@H]2CCCN2C(=O)[C@H](CCc2ccc(C(F)(F)F)c(Cl)c2)NC(=O)CN(C)C(=O)[C@H](CC2CCC2)N(C)C(=O)[C@@H]2CCN2C(=O)[C@H](C)N(C)C1=O [Compound 1716] ([NMeL]I[NMeA][Aze][NMeCba][Sar][hPhe(3-Cl-4-CF3)]P[Ac5c][NMeV][NMeD]-Piperidide; lactam N-11),7.9,100 to 500
CC[C@H](C)[C@@H]1NC(=O)[C@H](CC(C)C)N(CC)C(=O)C[C@@H](C(=O)N2CCOCC2)N(C)C(=O)[C@H](C2CCCCC2)N(C)C(=O)C2(CCCC2)NC(=O)[C@@H]2CCCN2C(=O)[C@H](CCc2ccc(C(F)(F)F)c(Cl)c2)NC(=O)CN(C)C(=O)[C@H](CC2CCCCC2)N(C)C(=O)CN(C)C(=O)CN(C)C1=O [Compound 1189] ([NEtLeu]I[Sar][Sar][NMeCha][Sar][hPhe(3-Cl-4-CF3)]P[Ac5c][NMeChg][NMeD]-Morpholide; lactam N-11),0.74,50 to 100
CC[C@H](C)[C@@H]1NC(=O)[C@H](CC(C)C)N(C)C(=O)C[C@@H](C(=O)N2CCCCC2)N(C)C(=O)[C@H](C(C)C)N(C)C(=O)C2(CCCC2)NC(=O)[C@@H]2CCCN2C(=O)[C@H](CCc2ccc(C(F)(F)F)c(Cl)c2)NC(=O)CN(C)C(=O)[C@H](Cc2ccccc2F)N(C)C(=O)CN(C)C(=O)CN(C)C1=O [Compound 1583] ([NMeL]I[Sar][Sar][NMePhe(2-F)][Sar][hPhe(3-Cl-4-CF3)]P[Ac5c][NMeV][NMeD]-Piperidide; lactam N-11),12,100 to 500
CC[C@H](C)[C@@H]1NC(=O)[C@H](CC(C)C)N(C)C(=O)C[C@@H](C)NC(=O)[C@H]([C@@H](C)CC)N(C)C(=O)C2(CCCC2)NC(=O)[C@@H]2CCCN2C(=O)[C@H](CCc2ccc(C(F)(F)F)c(Cl)c2)NC(=O)CN(C)C(=O)[C@H](Cc2ccc(C)cc2)N(C)C(=O)CN(C)C(=O)CN(C)C1=O [Compound 1774] (cyclo([Ac5c][NMeI][d(β3hA)][NMeL]I[Sar][Sar][NMePhe(4-Me)][Sar][hPhe(3-Cl-4-CF3)]P)),0.84,100 to 500
CC[C@H](C)[C@@H]1NC(=O)[C@H](CC(C)C)N(C)C(=O)C[C@@H](C(=O)N2CCCCC2)N(C)C(=O)[C@H](C(C)C)N(C)C(=O)C2(CCCC2)NC(=O)[C@@H]2CCCN2C(=O)[C@H](CCc2ccc(C(F)(F)F)c(Cl)c2)NC(=O)CN(C)C(=O)[C@H](Cc2ccccc2C)N(C)C(=O)CN(C)C(=O)CN(C)C1=O [Compound 1584] ([NMeL]I[Sar][Sar][NMePhe(2-Me)][Sar][hPhe(3-Cl-4-CF3)]P[Ac5c][NMeV][NMeD]-Piperidide; lactam N-11),9.5,100 to 500
CC[C@H](C)[C@@H]1NC(=O)[C@H](CC(C)C)N(C)C(=O)C[C@@H](C(=O)N2CCCCC2)N(C)C(=O)[C@H](C(C)C)N(C)C(=O)C2(CCCC2)NC(=O)[C@@H]2CCCN2C(=O)[C@H](CCc2ccc(C(F)(F)F)c(Cl)c2)NC(=O)CN(C)C(=O)[C@H](C2CCCCC2)N(C)C(=O)[C@@H]2CCN2C(=O)[C@H](C)N(C)C1=O [Compound 526] ([NMeL]I[NMeA][Aze][NMeChg][Sar][hPhe(3-Cl-4-CF3)]P[Ac5c][NMeV][NMeD]-Piperidide; lactam N-11),6.6,100 to 500
CC[C@H](C)[C@@H]1NC(=O)[C@H](CC(C)C)N(C)C(=O)C[C@@H](C(=O)N2CCC(C)(C)C2)NC(=O)[C@H]([C@@H](C)CC)N(C)C(=O)C2(CCCC2)NC(=O)[C@@H]2CCCN2C(=O)[C@H](CCc2ccc(C(F)(F)F)c(Cl)c2)NC(=O)CN(C)C(=O)[C@H](CC2CCCCC2)N(C)C(=O)CN(C)C(=O)CN(C)C1=O [Compound 1273] ([NMeL]I[Sar][Sar][NMeCha][Sar][hPhe(3-Cl-4-CF3)]P[Ac5c][NMeI]D-X14; lactam N-11),7.2,100 to 500
CCCOC[C@H]1C(=O)N(C)CC(=O)N[C@@H](CCc2ccc(C(F)(F)F)c(Cl)c2)C(=O)N2CCC[C@H]2C(=O)NC2(CCCC2)C(=O)N(C)[C@@H](C2CCCCC2)C(=O)N(C)[C@H](C(=O)N2CCOCC2)CC(=O)N(C)[C@@H](C2CCC2)C(=O)N[C@@H]([C@@H](C)CC)C(=O)N(C)CC(=O)N(C)CC(=O)N1C [Compound 853] ([NMeGly(cBu)]I[Sar][Sar][NMeS](Propyl)[Sar][hPhe(3-Cl-4-CF3)]P[Ac5c][NMeChg][NMeD]-Morpholide; lactam N-11),0.62,100 to 500
CC[C@H](C)[C@@H]1NC(=O)[C@H](CC(C)C)N(C)C(=O)C[C@@H](C)N(C)C(=O)[C@H](C(C)C)N(C)C(=O)C2(CCCC2)NC(=O)[C@@H]2CCCN2C(=O)[C@H](CCc2ccc(C(F)(F)F)c(Cl)c2)NC(=O)CN(C)C(=O)[C@H](Cc2ccccc2C)N(C)C(=O)CN(C)C(=O)CN(C)C1=O [Compound 1550] (cyclo([Ac5c][NMeV][NMedβ3hAla][NMeL]I[Sar][Sar][NMePhe(2-Me)][Sar][hPhe(3-Cl-4-CF3)]P)),19,50 to 100
C=CC[C@]1(C)NC(=O)[C@@H]2CCCN2C(=O)[C@H](CCc2ccc(C(F)(F)F)c(Cl)c2)NC(=O)CN(C)C(=O)[C@H](CC2CCCCC2)N(C)C(=O)CN(C)C(=O)CN(C)C(=O)[C@H]([C@@H](C)CC)NC(=O)[C@H](CC(C)C)N(C)C(=O)C[C@@H](C)N(C)C(=O)[C@H](C(C)C)N(C)C1=O [Compound 644] (cyclo(I[Sar][Sar][NMeCha][Sar][hPhe(3-Cl-4-CF3)]P[X2][NMeV][NMedβ3hAla][NMeL])),17,100 to 500
CC[C@H](C)[C@@H]1NC(=O)[C@H](C)N(C)C(=O)C[C@@H](C(=O)N2CCOCC2)N(C)C(=O)[C@H](C2CCCCC2)N(C)C(=O)C2(CCCC2)NC(=O)[C@@H]2CCCN2C(=O)[C@H](CCc2ccc(C(F)(F)F)c(Cl)c2)NC(=O)CN(C)C(=O)[C@H](CC2CCCCC2)N(C)C(=O)CN(C)C(=O)CN(C)C1=O [Compound 1847] ([NMeA]I[Sar][Sar][NMeCha][Sar][hPhe(3-Cl-4-CF3)]P[Ac5c][NMeChg][NMeD]-Morpholide; lactam N-11),0.63,100 to 500
CC[C@H](C)[C@@H]1NC(=O)[C@H](CC)N(C)C(=O)C[C@@H](C)NC(=O)[C@H](C(C)C)N(C)C(=O)C2(CCCC2)NC(=O)[C@@H]2CCCN2C(=O)[C@H](CCc2ccc(C(F)(F)F)c(Cl)c2)NC(=O)CN(C)C(=O)[C@H](CC2CCCCC2)N(C)C(=O)[C@@H]2CCN2C(=O)[C@H](C)N(C)C1=O [Compound 1607] (cyclo([Ac5c][NMeV][d(β3hA)][NMeAbu]I[NMeA][Aze][NMeCha][Sar][hPhe(3-Cl-4-CF3)]P)),28,100 to 500
"CC[C@H](C)[C@@H]1NC(=O)[C@H](CC(C)C)N(CC)C(=O)C[C@@H](C(=O)N(C)C)N(C)C(=O)[C@H](C2CCCC2)N(C)C(=O)C2(CCCC2)NC(=O)[C@@H]2CCCN2C(=O)[C@H](CCc2ccc(C(F)(F)F)c(F)c2)NC(=O)CN(C)C(=O)[C@H](CC2CCCCC2)N(C)C(=O)[C@@H]2CCN2C(=O)[C@H](C)NC1=O [Compound 1252] ([NEtLeu]IA[Aze][NMeCha][Sar][hPhe(3-F,4-CF3)]P[Ac5c][NMeGly(cPent)][NMeD]-NMe2; lactam N-11)",2.5,100 to 500
CC[C@H](C)[C@@H]1NC(=O)[C@H](C)N(C)C(=O)C[C@@H](C(=O)N2CCCCC2)N(C)C(=O)[C@H](C2CCCCC2)N(C)C(=O)C2(CCCC2)NC(=O)[C@@H]2CCCN2C(=O)[C@H](CCc2ccc(C)cc2)NC(=O)CN(C)C(=O)[C@H](CC2CCCCC2)N(C)C(=O)CN(C)C(=O)CN(C)C1=O [Compound 1055] ([NMeA]I[Sar][Sar][NMeCha][Sar][X33]P[Ac5c][NMeChg][NMeD]-Piperidide; lactam N-11),2.2,100 to 500
CC[C@H](C)[C@@H]1NC(=O)[C@H](CC)N(C)C(=O)C[C@@H](C(=O)N2CCCC2)N(C)C(=O)[C@H](C2CCCCC2)N(C)C(=O)C2(CCCC2)NC(=O)[C@@H]2CCCN2C(=O)[C@H](CCc2ccc(C(F)(F)F)c(Cl)c2)NC(=O)CN(C)C(=O)[C@H](Cc2ccc(C)cc2)N(C)C(=O)CN(C)C(=O)CN(C)C1=O [Compound 1905] ([NMeAbu]I[Sar][Sar][NMePhe(4-Me)][Sar][hPhe(3-Cl-4-CF3)]P[Ac5c][NMeChg][NMeD]-Pyrrolidide; lactam N-11),0.33,20 to 50
